Measured values as given in US9723842B2, “Isothiazolinone biocides enhanced by zinc ions” (ARCH CHEMICALS, INC., priority 2006, dated 2017).
Where two headings read alike, the source gives them in different places.

System: Ps. aeruginosa
Test: Minimum inhibitory concentration against mono-cultures (microtitre plate, doubling dilutions)
Format: cell-based, Pseudomonas aeruginosa (NCIB 10421)
Details: for MIC: Pseudomonas aeruginosa
Experimental: Pseudomonas aeruginosa (NCIB 10421) maintained on nutrient agar, were used to study the synergy between BIT and ZnCl2. Bacteria were grown to stationary phase (approximately 24 hours) in nutrient broth (approximately 10^9 organisms per ml). A 0.1% (v/v) inoculum was used to seed fresh medium and 100 μl of the inoculum was then added to each well of a microtitre plate, except for the first well which contained 200 μl. Using doubling dilutions, the concentration of the compounds under investigation were varied in each well along the ordinate axis. The presence or absence of growth was recorded by visual inspection after 24 hours incubation at 37° C. Bacteria were grown to stationary phase (approximately 24 hours) in nutrient broth (approximately 10^9 organisms per ml). A 0.1% (v/v) inoculum was used to seed fresh medium and 100 μl of the inoculum was then added to each well of a microtitre plate, except for the first well which contained 200 μl. Using doubling dilutions, the concentration of the compounds under investigation were varied in each well along the ordinate axis. The presence or absence of growth was recorded by visual inspection after 24 hours incubation at 37° C.

[1] = Comparative Example A, Table 10

SMILES | MIC (ppm) against Ps. aeruginosa [1] | MIC (ppm) against Ps. aeruginosa (Example 2, Table 2, column 1) | MIC (ppm) against Ps. aeruginosa (Example 2, Table 2, column 2) | MIC (ppm) against Ps. aeruginosa (Example 2, Table 2, column 3) | MIC (ppm) against Ps. aeruginosa (Example 2, Table 2, column 4) | MIC (ppm) against Ps. aeruginosa (Example 5, Table 8, column 1) | MIC (ppm) against Ps. aeruginosa (Example 5, Table 8, column 2) | MIC (ppm) against Ps. aeruginosa (Example 5, Table 8, column 3) | MIC (ppm) against Ps. aeruginosa (Example 5, Table 8, column 4) | also measured
O=c1[nH]sc2ccccc12 [BIT, 1,2-benzisothiazolin-3-one] | 30 ppm | 30 ppm | 42 ppm | 42 ppm | 30 ppm | – | – | – | – | –
[Cl-].[Na+] [NaCl2, Sodium Chloride] | None detected (greater than 675) ppm | – | – | – | – | – | – | – | – | –
CCCCn1sc2ccccc2c1=O [BBIT, N-(n-butyl)-1,2-benzisothiazolin-3-one] | – | – | – | – | – | 315 ppm | 360 ppm | 42 ppm | 180 ppm | –
Cn1sccc1=O [MIT, 2-methyl-4-isothiazolin-3-one] | – | – | – | – | – | – | – | – | – | MIC (read-out: MIC (ppm) against Ps. aeruginosa, Example 4, Table 6, column 1): 9 µg/mL; MIC (read-out: MIC (ppm) against Ps. aeruginosa, Example 4, Table 6, column 2): 6 µg/mL; MIC (read-out: MIC (ppm) against Ps. aeruginosa, Example 4, Table 6, column 3): 10.5 µg/mL; MIC (read-out: MIC (ppm) against Ps. aeruginosa, Example 4, Table 6, column 4): 8 µg/mL
[Cl-].[Cl-].[Zn+2] [ZnCl2, zinc chloride] | – | 300 ppm | 450 ppm | 375 ppm | 450 ppm | 525 ppm | 525 ppm | 600 ppm | 600 ppm | MIC (ppm) against Ps. aeruginosa (Example 3, Table 4, column 1): 294 ppm; MIC (ppm) against Ps. aeruginosa (Example 3, Table 4, column 2): 294 ppm; MIC (ppm) against Ps. aeruginosa (Example 3, Table 4, column 3): 210 ppm; MIC (ppm) against Ps. aeruginosa (Example 3, Table 4, column 4): 600 ppm; MIC (ppm) against Ps. aeruginosa (Example 4, Table 6, column 1): 210 ppm; MIC (ppm) against Ps. aeruginosa (Example 4, Table 6, column 2): 210 ppm; MIC (ppm) against Ps. aeruginosa (Example 4, Table 6, column 3): 450 ppm; MIC (ppm) against Ps. aeruginosa (Example 4, Table 6, column 4): 450 ppm
